For the assay, the system named is tau phosphorylation. Put plainly: Tau phosphorylation after concussive injury in the rat (phosphorylated tau immunohistology). The assay is classed as in vivo. Particulars: rat concussion model; 1 mg/kg intravenously at 30 min after induction of injury; assessed 3 days after the concussive event; compared with injured and non-injured animals. From the text:
Note that concussive injury in the rat causes extensive tau phosphorylation (B) by 3 days after the concussive event compared to non-injured animals (A).
Having established that hyperphosphorylated tau accumulates perivascularly following concussive injury, we used an animal model of concussion to investigate whether concussion causes perivascular release of substance P. We developed a rodent model of concussion to replicate the concussive event (Donkin et al., 2004, 7th International Neurotrauma Symposium, pp 75-78, Medimond Publishers, Bologna, Italy) and subsequently determined whether substance P was released after such an event. There was a clear increase in brain perivascular substance P immunoreactivity after the concussive event (FIG. 2).
Having shown that mechanical injury causes release of substance P after concussive injury, we then investigated whether a compound of formula (I) reduces tau hyperphosphorlation after concussive injury. […] Note that concussive injury in the rat causes extensive tau phosphorylation (B) by 3 days after the concussive event compared to non-injured animals (A). […] Thus, administration of a compound of formula (I) prevents tau hyperphosphorylation and thus prevents the development of CTE.

The source of these data is patent US20180263993A1, “METHOD FOR PREVENTING AND/OR TREATING CHRONIC TRAUMATIC ENCEPHALOPATHY-IV” (Eustralis Pharmaceuticals Limited (trading as Pressura …, priority 2013, published 2018).

Consider `Cc1ccccc1-c1cc(N2CCOCC2)ncc1N(C)C(=O)C(C)(C)c1cc(C(F)(F)F)cc(C(F)(F)F)c1` [compound of formula (I), 2-[3,5-bis(trifluoromethyl)phenyl]-N,2-dimethyl-N-[4-(2-methylphenyl)-6-morpholin-4-ylpyridin-3-yl]propanamide], for which the “effect on tau phosphorylation after concussive injury” value was “almost complete inhibition of tau phosphorylation”.
